One test has as its system LNCaP. Put plainly: Cytotoxicity in LNCaP prostate cancer cells. As to conditions: LNCaP prostate cancer cell line; read-out: IC50 in Human Cancer Cell Lines. The test is classed as cell-based. The method, then: MDA-MB-435S.luc cells were grown in Leibovitz's L 15 medium, 10% fetal bovine serum, 0.01 mg/ml bovine insulin, 100 IU/ml penicillin, 100 microg/ml streptomycin. The cells were cultured in tight closed flasks. The incubations were conducted using 96 well plates at 10,000 cells per well. Cells were typically seeded into 96 well plates and media was replaced after 48 hours of incubation. Each assay was conducted at increasing concentrations of 0, 0.001, 0.01, 0.05, 0.1, 0.5, 1, 2, 5, 10 and 100 micromolar doses of lytic peptide-binding domain conjugate. Each lytic peptide-binding domain conjugate provided in lyophilized form and was freshly dissolved in saline and added to cells. The duration of incubation was typically 24 h, and cell viability assays were conducted using formazan conversion assays (MTT assay). Controls contained saline or 0.1% triton as reference for 0 and 100% cell death, respectively.
To ascertain the IC50 of various fusion constructs on different human cancer cell lines compared to cisplatinum, IC50 of fusion constructs were evaluated as in Table 3.

The next test relates to MDA-MB-435S xenograft. Put plainly: MDA-MB-435S xenograft, multiple dose regimen. The test is classed as in vivo, Nu/Nu mice. To be noted: for tumor free mice: multiple intravenous injections. The method, then:
In order to determine the minimal effective dose necessary to reduce MDA-MB-435S xenograft weights in a multiple dose regimen, Nu/Nu female mice, outbred strain, age 8 weeks (Charles River), were injected (s.c.) into the interscapular region with a MDA-MB-435S (passage # 253)/Matrigel suspension (2×10^6 cells/mouse) as previously described above. Phor 18-LHRH (338613) (ID: 338613 lot #P080401) (0.002, and 0.2 mg/kg) were reconstituted in USP saline prior to dosing. The doses were given as a single bolus intravenous injection via lateral tail vein on days 15, 16, 17, 20, 21, 22, 23, 27, 28, 29, 30, 33, 34, 35, 36, 37, 38, 40, 41, 42 after tumor cell inoculation. Saline injections served as control groups.
Each treatment group consisted of 16 mice. During the entire study tumor volumes were recorded twice weekly. Final necropsy was conducted on day 45 after tumor cell injection. […] due to occlusion of the tail vein in most mice. At study endpoint body weight, tumor weights were determined and fixed in phosphate buffered 10% formalin.

The subject of a further test is ID8. Put plainly: Cytotoxicity in ID8 murine ovarian cancer cells (24 h). In kind it is cell-based. To be noted: ID8, 24 h; read-out: In vitro activity (IC50). As for the experimental part: Murine ovarian cancer cell lines (ID8, IG10, IF5, and 2Cl2) were grown in RPMI 1640 media with 10% Fetal Bovine Serum. Cells were typically seeded (3000 cells per well) into 96 well plates and media was replaced after 48 hours of incubation. […] Phor18-LHRH was provided in lyophilized form was dissolved in saline and added to cells. The duration of incubation was 24 h at 37° C. Cell viability was assessed after 24 hours using a luminometric assays (Promega, CellTiter-0Glo 2.0, G9243). Controls contained saline or 0.1% triton as reference for 0 and 100% cell death, respectively.
Data were processed and analyzed using GraphPad Prism version 7.00 for Windows (GraphPad Software, San Diego California). Statistical analysis for significance was determined by a two-tailed Student's T-test. Each study was conducted to achieve an […] of at least 6.
In vitro activities were expressed as IC50 values for each cell line, time point and compound tested that were calculated using the Hill equation (Graph Pad Prizm software).

The subject of the next test is PD-L1. Put plainly: PD-L1 expression in ID8 and IG10 cells after EP-100 (RT-PCR, Western blot). The test is classed as cell-based, murine. The method, then: To determine the potential role of EP-100 in immune activation, the effect on PD-L1 expression in murine ovarian cancer cells was determined in the presence of EP-100. […] PD-L1 mRNA was increased with treatment with as low as 0.5 μm EP-100 for 4 hours, and PD- L1 protein was increased after 6 hours of treatment.
Background: In western blotting, separated proteins are transferred to a membrane and probed.

In test [1] the test system is EMT-6 murine mammary carcinoma. The test can be described thus: EMT-6 murine mammary carcinoma syngeneic model, tumor growth delay. The test is classed as in vivo, BALB/c mice. As to conditions: for median TTE: control 16.5 days. As for the experimental part:
The present study consisted of six efficacy groups (n=10) and three sampling groups (n=5) of female BALB/c mice implanted with EMT-6 tumor cells (mean volume: 61-85 mm^3). Dosing was initiated on Day (D) 1 of the study, unless otherwise noted. […] Anti-CTLA-4 was administered i.p. at 100 μg/animal on Day 2 and 50 μg/animal on Day 5 and Day 8.
Group 1 mice served as controls and received i.v. saline (vehicle), qod×to end. Group 2 received anti-CTLA-4. Group 3 received Phor 18-LHRH at 0.4 μg/animal qod×8 followed by 20 μg/animal qod to end (starting on Day 17). […] Group 5 received Phor 18-LHRH at 0.4 μg/animal q.o.d.×8 followed by 20 μg/animal qod to end (starting on Day 17) in combination with anti-CTLA-4.
The study endpoint was a tumor volume of 2000 mm^3 or 45 days, whichever came first. Tumor measurements were taken twice weekly until D45 with individual animals exiting the study upon reaching the tumor volume endpoint.
Efficacy was determined from tumor growth delay (TGD), the increase in median time-to-endpoint (TTE) in treated versus control mice, and from comparison of survival curves using logrank analysis. Response was additionally evaluated based on the number of study survivors, partial regression (PR) and complete regression (CR) responses, and logrank significance of differences in survival. Tolerability of the various treatments was assessed by body weight (BW) measurements and frequent observation for clinical symptoms and treatment-related (TR) side effects.
Four sampling groups consisting of 5 animals each were included in this study: saline controls. […] Animals in these groups were sacrificed on day 17, tumors were excised, formalin fixed and paraffin embedded to obtain H&E stained sections for histological evaluation of the tumors. Tumor samples were collected for analysis and stained with hematoxylin & cosin for pathological evaluation.

[2] abbreviates: Phor18-LHRH at 0.4 μg and 20 μg/animal (alone or with anti-CTLA-4).
[3] abbreviates: Phor18-LHRH at 10 μg and 60 μg/animal (alone or with anti-CTLA-4).

The term IC50 denotes the concentration at which inhibition is half-maximal. Regarding “KFAKFAKKFAKFAKKFAKQHWSYGLRPG [Phor18-LHRH]”, the IC50 in the test with LNCaP was 1550 ± 80 nM; in the test with ID8, 1370 nM. Moreover, the figures for the tumor free mice in the test with MDA-MB-435S xenograft (0.002 mg/kg) and in the test with MDA-MB-435S xenograft (0.2 mg/kg) were 6/23 and 1/20, respectively. In the test with MDA-MB-435S xenograft (0.002 and 0.2 mg/kg, multiple injection regimen), the “histological examination of H&E stained tumors” value is listed as “eradication of tumor cells”. Further, in the test with PD-L1 (4 hours), the “lowest concentration increasing PD-L1 mRNA” value is recorded as 0.5 μm. Also, the “PD-L1 mRNA and protein levels” value in the test with PD-L1 (ID8 and IG10 cells, protein after 6 hours) was “both PD-L1 mRNA and protein levels were increased”. The TGD in test [1] (setting [2]) is reported as 6%; in test [1] (setting [3]) it was 5%. For the same sequence, the “median TTE” value is on record as 17.5 days in test [1] (setting [2]) and 17.4 days in test [1] (setting [3]). For the same sequence, in test [1] (animals sacrificed on day 17), the “histological evaluation of tumors” value is “inflammatory immune cell infiltration and necrosis”.
